Results from patent US20050048508A1, “Trehalose receptor and method for detecting trehalose with the same” (KABUSHIKI KAISHA HAYASHIBARA SEIBUTSU KAGAKU KENKYUJO, priority 2002, published 2005).

Biological target: T1, T1R1 with G protein α-subunits (α15 and α16/Z chimeric protein) (Mus musculus, UniProt Q99PG6)
T1 construct: expressed in transfected cells; host or cells: 293 cells, RCB 1637 (human embryonic kidney)
T1 sequence (Q99PG6 20-842 L120P/N244D/D281A/N309Y/P311T/S314P/H418Y): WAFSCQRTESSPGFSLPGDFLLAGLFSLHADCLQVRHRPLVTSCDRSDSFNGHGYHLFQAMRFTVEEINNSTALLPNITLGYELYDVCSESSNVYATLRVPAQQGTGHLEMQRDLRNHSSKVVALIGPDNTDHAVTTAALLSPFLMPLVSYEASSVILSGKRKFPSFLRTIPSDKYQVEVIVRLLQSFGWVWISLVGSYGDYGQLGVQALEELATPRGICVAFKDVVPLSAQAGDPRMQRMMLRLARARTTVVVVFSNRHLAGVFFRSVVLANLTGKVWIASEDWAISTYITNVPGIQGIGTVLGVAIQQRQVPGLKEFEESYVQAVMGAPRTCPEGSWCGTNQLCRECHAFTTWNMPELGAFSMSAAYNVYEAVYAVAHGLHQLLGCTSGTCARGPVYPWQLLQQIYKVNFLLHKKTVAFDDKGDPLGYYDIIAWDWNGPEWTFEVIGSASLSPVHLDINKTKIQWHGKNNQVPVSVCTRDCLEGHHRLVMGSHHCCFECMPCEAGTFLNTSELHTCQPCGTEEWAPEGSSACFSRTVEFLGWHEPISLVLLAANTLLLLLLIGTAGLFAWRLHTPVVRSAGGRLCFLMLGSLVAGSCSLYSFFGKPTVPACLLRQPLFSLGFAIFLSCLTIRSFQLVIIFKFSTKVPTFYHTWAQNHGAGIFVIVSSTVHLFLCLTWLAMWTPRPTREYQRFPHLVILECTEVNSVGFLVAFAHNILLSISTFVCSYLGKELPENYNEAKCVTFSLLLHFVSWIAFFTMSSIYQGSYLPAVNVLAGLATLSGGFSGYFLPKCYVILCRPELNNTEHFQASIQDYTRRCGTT
Test: Intracellular calcium ion assay, 293 cells coexpressing G protein α-subunits and T1R1
Format: cell-based
Conditions: 293 cells: T1R1 + G protein α-subunits; 0.67 ml of 1 M saccharide solution added to 2 ml cell suspension; FLUO-4 AM
Procedure: The coexpression vector for the G protein α-subunit α15 and the G protein α16/Z chimeric protein (hereinafter designated as “G protein α-subunits”) obtained in Example 1-3 was gene transferred to 293 cells, RCB 1637, a human embryonic kidney cell line, available from the Riken Bioresource Center, Ibaraki, Japan, by conventional lipofection. The gene transferred cells were suspended in Dulbecco's Modified Eagle's Medium (D-MEM) supplemented with 1 mg/L of “PUROMYCIN”, a trade mane of puromycin commercialized by Edge Biosystems, MD, USA, and 10% (v/v) of fetal calf serum to give a cell density of 2×10^6 cells/ml and cultured in a plastic petri dish for cell culture. […]
The captioned reactivity test was conducted according to a conventional intracellular calcium ion assay: 293 Cells prepared in Example 3, capable of coexpressing the G protein α-subunits and the sweet taste receptor(s), were cultured in a plastic petri dish for cell culture until reaching its confluent phase. […] Two milliliters of the resultant cell suspension was injected into a glass cuvette, commercialized by Hitachi, Ltd., Tokyo, Japan, and analyzed on “HITACHI 650-40”, a fluorescence spectrophotometer commercialized by Hitachi, Ltd., Tokyo, Japan. […]

Row | Influx of calcium ion | Structure (SMILES)
1 | Negative | OC[C@H]1O[C@H](O[C@H]2O[C@H](CO)[C@@H](O)[C@H](O)[C@H]2O)[C@H](O)[C@@H](O)[C@@H]1O [Trehalose]
2 | Negative | OC[C@H]1O[C@@](CO)(O[C@H]2O[C@H](CO)[C@@H](O)[C@H](O)[C@H]2O)[C@@H](O)[C@@H]1O [Sucrose, reference compound]
